23 compounds from patent US10934303B2, “Aryl ethene derivative and pharmaceutical composition containing same as active ingredient” (priority 2016, dated 2021) can be followed below.

Molecules are shown by their SMILES.

One series has as its system ERRγ. Format: cell-based. Particulars: for Functional Assay at 10 μM (% of control), Cpds: 24 hours, AD293; for Functional Assay, Cpds/Ref 5182: activity relative to reference compound GSK5182, 10 μM.
A further series in a line: in vivo. Particulars: rat, IV, 1 mg/kg. Format: in vivo.
For series [1] the following is noted: 1 μM, 30 minutes, 37° C., NADPH.
For series [2] the following is noted: 1 μM, 30 minutes, 37° C., NADPH. This is another data set of the same source.
The nature of the next series: in vitro. Format: in vitro ADME. Particulars: PAMPA, PBS pH 7.4, 25° C., read-out: Permeability Pampa. On the set-up: Papp at 5 h: dose or concentration left out as unconfirmed. (In general: In PAMPA a lipid-coated filter parts donor from acceptor wells.)

Protocol for in vivo: An oral administration group fasts the day before.
Blood of each animal is collected at 0 hour.
Into a tail vein of an intravenous administration group (IV), a drug is injected at a dose of 1 mg/kg (syringe).
To an oral administration group (PO), a drug is orally administered at a dose of 10 mg/kg (oral zondec)
After administration, blood of the intravenous administration group was collected through a jugular vein 8 times at 0.08, 0.25, 0.5, 1, 2, 4, 6, and 8 hours. One collected blood amount is 400 to 500 ul.
After administration, blood of the oral administration group was collected through a jugular vein 6 times at 0.25, 0.5, 1, 4, 6 and 8 hours. One collected blood amount is 400 to 500 ul.
Supernatant plasma is collected by a centrifuge.
The supernatant plasma was injected into a LC-MS/MS system and the drug is analyzed.

With `OCCC/C(=C(\c1ccc(O)cc1)c1ccc(NCCN2CCCCC2)cc1)c1ccccc1` [Compound 45, (E)-4-(5-hydroxy-2-phenyl-1-(4-((2-(piperidin-1-yl)ethyl)amino)phenyl)pent-1-en-1-yl)phenol], in the series on ERRγ, the “Functional Assay at 10 μM (% of control), Cpds” value is recorded as 1.58 % of control and the “Functional Assay, Cpds/Ref 5182” value turned out to be 1.55.

`C[Si](C)(CN1CCCC1)c1ccc(/C(=C(/CCCO)c2ccccc2)c2ccc(O)cc2)cc1` [Compound 42c]: in the series with ERRγ, the “Functional Assay at 10 μM (% of control), Cpds” value is on record as 2.6 % of control and the “Functional Assay, Cpds/Ref 5182” value was found to be 0.89.

A word on the Vss: it is the apparent volume that relates the amount in the body to the concentration in plasma or blood. In “in vivo”, `OCCC/C(=C(\c1ccc(O)cc1)c1ccc(C2CNC2)cc1)c1ccccc1` [Compound 20e] returned an AUCINF of 0.34 μMh, an AUCall of 0.28 μMh, a volume of distribution (Vss) of 52.8 L/kg and a t1/2 of 4.4 h. Also, in series [1], the “MS(Microsomal Stability) (%) human” value stood at 78.1%. Moreover, in series [2], the “MS(Microsomal Stability) (%) rat” value is 82.1%.

`C[Si](C)(CN1C[C@H]2CNC[C@H]2C1)c1ccc(/C(=C(/CCCO)c2ccccc2)c2ccc(O)cc2)cc1` [Compound 42e]: in the series on ERRγ, the “Functional Assay at 10 μM (% of control), Cpds” value is 26.04 % of control and the “Functional Assay, Cpds/Ref 5182” value was determined as 6.37.

`CN1CCN(c2ccc(/C(=C(/CCCOC(=O)C(C)(C)C)c3ccccc3)c3ccc(OC(=O)C(C)(C)C)cc3)cc2)CC1` [Compound 28g]: in the series on ERRγ, the “Functional Assay at 10 μM (% of control), Cpds” value is 5.1 % of control and the “Functional Assay, Cpds/Ref 5182” value turned out to be 1.25.

Turning to `CN1CCN(CCOc2ccc(/C(=C(/CCCO)c3ccccc3)c3ccc(O)cc3)cc2)CC1` [Compound 6b], in the series on ERRγ, the “Functional Assay at 10 μM (% of control), Cpds” value is reported as 7.97 % of control and the “Functional Assay, Cpds/Ref 5182” value amounted to 2.59.

As for `CC(C)(C)OC(=O)N1CCN(c2ccc(/C(=C(/CCCO)c3ccccc3)c3ccc(O)cc3)cc2)CC1` [Compound 18m], in the series with ERRγ, the “Functional Assay at 10 μM (% of control), Cpds” value was 2.97 % of control and the “Functional Assay, Cpds/Ref 5182” value is 1.01.

Turning to `CN1CCN(Cc2ccc(/C(=C(/CCCO)c3ccccc3)c3ccc(O)cc3)cc2)CC1` [Compound 30a, (E)-4-(5-hydroxy-1-(4-((4-methylpiperazin-1-yl)methyl)phenyl)-2-phenylpent-1-en-1-yl)phenol], in the series with ERRγ, the “Functional Assay at 10 μM (% of control), Cpds” value was 2.94 % of control and the “Functional Assay, Cpds/Ref 5182” value is listed as 3.09.

As for `OCCC/C(=C(\c1ccc(O)cc1)c1ccc(N2CCNCC2)cc1)c1ccccc1` [Compound 20c], in the series with ERRγ, the “Functional Assay at 10 μM (% of control), Cpds” value is recorded as 2.72 % of control and the “Functional Assay, Cpds/Ref 5182” value amounted to 0.93. The “MS(Microsomal Stability) (%) human” value in series [1] was determined as 55.8%. Also, in series [2], the “MS(Microsomal Stability) (%) rat” value was found to be 53.7%.

Consider `CC(C)N1CCN(c2ccc(/C(=C(/CCCO)c3ccccc3)c3ccc(OS(C)(=O)=O)cc3)cc2)CC1` [Compound 28a, (E)-4-(5-hydroxy-1-(4-(4-isopropylpiperazin-1-yl)phenyl)-2-phenylpent-1-en-1-yl)phenyl methanesulfonate], for which, in the series on ERRγ, the “Functional Assay at 10 μM (% of control), Cpds” value is recorded as 1.14 % of control and the “Functional Assay, Cpds/Ref 5182” value was 1.20.

Regarding `CC(C)N1CCN(c2ccc(/C(=C(/CCCO)c3ccccc3)c3ccc(OS(=O)(=O)C(F)(F)F)cc3)cc2)CC1` [Compound 28d], in the series on ERRγ, the “Functional Assay at 10 μM (% of control), Cpds” value was 1.69 % of control and the “Functional Assay, Cpds/Ref 5182” value is 1.78.

As for `OCCC/C(=C(\c1ccc(O)cc1)c1ccc(OCCN2CCOCC2)cc1)c1ccccc1` [Compound 6c], in the series with ERRγ, the “Functional Assay at 10 μM (% of control), Cpds” value is 4.64 % of control and the “Functional Assay, Cpds/Ref 5182” value worked out at 1.51. Besides, the “MS(Microsomal Stability) (%) human” value in series [1] is 128.0%. Further, the “MS(Microsomal Stability) (%) rat” value in series [2] is 45.2%.

For `CN1CCN(C[Si](C)(C)c2ccc(/C(=C(/CCCO)c3ccccc3)c3ccc(O)cc3)cc2)CC1` [Compound 42a, (Z)-4-(1-(4-(dimethyl((4-methylpiperazin-1-yl)methyl)silyl)phenyl)-5-hydroxy-2-phenylpent-1-en-1-yl)phenol], in the series on ERRγ, the “Functional Assay at 10 μM (% of control), Cpds” value is reported as 4.37 % of control and the “Functional Assay, Cpds/Ref 5182” value was found to be 1.49.

With `O=C(CN1CCCCC1)Nc1ccc(/C(=C(/CCCO)c2ccccc2)c2ccc(O)cc2)cc1` [Compound 44, (E)-N-(4-(5-hydroxy-1-(4-hydroxyphenyl)-2-phenylpent-1-en-1-yl)phenyl)-2-(piperidin-1-yl)acetamide], in the series on ERRγ, the “Functional Assay at 10 μM (% of control), Cpds” value was 12.94 % of control and the “Functional Assay, Cpds/Ref 5182” value was 3.16.

On to `OCCC/C(=C(\c1ccc(O)cc1)c1ccc(N2CCOCC2)cc1)c1ccccc1` [Compound 18o], for which, in the series with ERRγ, the “Functional Assay at 10 μM (% of control), Cpds” value is 23.2 % of control and the “Functional Assay, Cpds/Ref 5182” value came out at 2.33.

Take `C[Si](C)(CN1CCCCC1)c1ccc(/C(=C(/CCCO)c2ccccc2)c2ccc(O)cc2)cc1` [Compound 42b]: in the series with ERRγ, the “Functional Assay at 10 μM (% of control), Cpds” value is on record as 11.6 % of control and the “Functional Assay, Cpds/Ref 5182” value was determined as 1.16. Besides, the Papp at 5 h in the series “in vitro” amounted to 0.1 ×10⁻⁶ cm/s.

Regarding `C[Si](C)(CC1CCNCC1)c1ccc(/C(=C(/CCCO)c2ccccc2)c2ccc(O)cc2)cc1` [Compound 42d], in the series on ERRγ, the “Functional Assay at 10 μM (% of control), Cpds” value was 11.7 % of control and the “Functional Assay, Cpds/Ref 5182” value is 3.99.

As to `CN1CCN(c2ccc(/C(=C(/CCCO)c3ccccc3)c3ccc(OC(=O)C(C)(C)C)cc3)cc2)CC1` [Compound 28e], in the series with ERRγ, the “Functional Assay at 10 μM (% of control), Cpds” value is reported as 4.76 % of control and the “Functional Assay, Cpds/Ref 5182” value is listed as 1.16. In addition, in series [1], the “MS(Microsomal Stability) (%) human” value was 56.4%. The “MS(Microsomal Stability) (%) rat” value in series [2] amounted to 59.6%.

`CN1C[C@@H]1CCCOc1ccc(/C(=C(/CCCO)c2ccccc2)c2ccc(Br)cc2)cc1` (some centres unmarked) [Compound 13c]: in the series on ERRγ, the “Functional Assay at 10 μM (% of control), Cpds” value is given as 10.58 % of control and the “Functional Assay, Cpds/Ref 5182” value came to 3.36.

`OCCC/C(=C(\c1ccc(O)cc1)c1ccc(OCCN2C[C@H]3CNC[C@H]3C2)cc1)c1ccccc1` [Compound 40, 4-((Z)-1-(4-(2-((3 aR,6aS)-hexahydropyrrolo[3,4-c]pyrrol-2(1H)-yl)ethoxy)phenyl)-5-hydroxy-2-phenylpent-1-en-1-yl)phenol]: in the series with ERRγ, the “Functional Assay at 10 μM (% of control), Cpds” value was 2.8 % of control and the “Functional Assay, Cpds/Ref 5182” value was 0.96. In addition, the “MS(Microsomal Stability) (%) human” value in series [1] was 64.7%. In series [2], the “MS(Microsomal Stability) (%) rat” value is 72.0%.

Consider `C[C@@]12CNC[C@]1(C)CN(CC(=O)Nc1ccc(/C(=C(/CCCO)c3ccccc3)c3ccc(O)cc3)cc1)C2` [Compound 46, 2-((3aR,6aS)-3a,6a-dimethylhexahydropyrrolo[3,4-c]pyrrol-2(1H)-yl)-N-(4-((E)-5-hydroxy-1-(4-hydroxyphenyl)-2-phenylpent-1-en-1-yl)phenyl)acetamide], for which, in the series with ERRγ, the “Functional Assay at 10 μM (% of control), Cpds” value is on record as 78.46 % of control and the “Functional Assay, Cpds/Ref 5182” value was determined as 24.91.

In the case of `CN(C)CCn1cc(-c2ccc(/C(=C(/CCCO)c3ccccc3)c3ccc(O)cc3)cc2)nn1` [Compound 18u], in the series with ERRγ, the “Functional Assay at 10 μM (% of control), Cpds” value was 5.33 % of control and the “Functional Assay, Cpds/Ref 5182” value is listed as 5.61.

In the case of `CN1CCN(c2ccc(/C(=C(/CCCOC(=O)C(C)(C)C)c3ccccc3)c3ccc(O)cc3)cc2)CC1` [Compound 28f], in the series on ERRγ, the “Functional Assay at 10 μM (% of control), Cpds” value was 4 % of control and the “Functional Assay, Cpds/Ref 5182” value turned out to be 0.98.
